According to publication PMC9516332 (Frontiers in Oncology, 2022):
Like-named read-outs stand apart in the source and are kept apart here.

Tested on: 134 cancer cell lines
Test: Cell viability assay (ATPlite, 72 hours), IC50 on cancer cell line panel

With `Cn1cnc2c(F)c(Nc3ccc(Br)cc3Cl)c(C(=O)NOCCO)cc21` [selumetinib] the IC50 (Homo sapiens, MOLT-4, read-out: IC50 in cell proliferation assay, MOLT-4 cell line) was > 31.6 µM, the IC50 (Homo sapiens, MV4-11, read-out: IC50 in cell proliferation assay, MV4-11 cell line (FLT3 ITD)) was 0.178 µM and the IC50 (Homo sapiens, MeWo, read-out: IC50 in cell proliferation assay, MeWo cell line) was 5.4 µM. For the same molecule, the IC50 (Homo sapiens, NCCIT, read-out: IC50 in cell proliferation assay, NCC-IT cell line) was 25.9 µM, the IC50 (Homo sapiens, NCI-H82, read-out: IC50 in cell proliferation assay, cell line NCI-H82) was 6.84 µM and the IC50 (Homo sapiens, NCI-H460, read-out: IC50 in cell proliferation assay, NCI-H460 cell line) was 0.297 µM. The IC50 (Homo sapiens, NCI-H661, read-out: IC50 in cell proliferation assay, NCI-H661 cell line) was > 31.6 µM, the IC50 (Homo sapiens, NCI-H716, read-out: IC50 in cell proliferation assay, cell line NCI-H716 (FGFR2-COL14A1)) was 0.197 µM and the IC50 (Homo sapiens, NCI-H1650, read-out: IC50 in cell proliferation assay, NCI-H1650 cell line (EGFR exon19del)) was > 31.6 µM. The IC50 (Homo sapiens, NCI-H1975, read-out: IC50 in cell proliferation assay, NCI-H1975 cell line (EGFR p.L858R + p.T790M)) was 1.92 µM, the IC50 (Homo sapiens, NCI-H2228, read-out: IC50 in cell proliferation assay, NCI-H2228 cell line (EML4-ALK)) was 0.294 µM and the IC50 (Homo sapiens, OVCAR-3, read-out: IC50 in cell proliferation assay, cell line OVCAR-3) was > 31.6 µM. The IC50 (Homo sapiens, PFSK-1, read-out: IC50 in cell proliferation assay, cell line PFSK-1) was > 31.6 µM, the IC50 (Homo sapiens, RL95-2, read-out: IC50 in cell proliferation assay, cell line RL95-2 (EGFR p.A289V)) was 0.012 µM and the IC50 (Homo sapiens, RPMI-7951, read-out: IC50 in cell proliferation assay, cell line RPMI-7951 (BRAF p.V600E)) was 0.143 µM. For the same molecule, the IC50 (Homo sapiens, RS4-11, read-out: IC50 in cell proliferation assay, cell line RS4;11) was 18.2 µM, the IC50 (Homo sapiens, Rec1, read-out: IC50 in cell proliferation assay, cell line REC-1) was > 31.6 µM and the IC50 (Homo sapiens, SHP77, read-out: IC50 in cell proliferation assay, cell line SHP-77) was > 31.6 µM. The IC50 (Homo sapiens, SK-BR-3, read-out: IC50 in cell proliferation assay, cell line SK-BR-3 (ERBB2 amplification)) was > 31.6 µM, the IC50 (Homo sapiens, SK-N-AS, read-out: IC50 in cell proliferation assay, cell line SK-N-AS) was 0.02 µM and the IC50 (Homo sapiens, SK-N-FI, read-out: IC50 in cell proliferation assay, cell line SK-N-FI) was 8.41 µM. For the same molecule, the IC50 (Homo sapiens, SK-N-MC, read-out: IC50 in cell proliferation assay, cell line SK-N-MC) was > 31.6 µM, the IC50 (Homo sapiens, SK-N-SH, read-out: IC50 in cell proliferation assay, cell line SK-N-SH (ALK p.F1174L)) was 0.066 µM and the IC50 (Homo sapiens, SNU-5, read-out: IC50 in cell proliferation assay, cell line SNU-5 (MET amplification)) was 1.31 µM. The IC50 (Homo sapiens, SNU-16, read-out: IC50 in cell proliferation assay, cell line SNU-16 (FGFR2 amplification)) was > 31.6 µM, the IC50 (Homo sapiens, SNU-C2B, read-out: IC50 in cell proliferation assay, cell line SNU-C2B (EGFR p.R165Q)) was 0.036 µM and the IC50 (Homo sapiens, SU-DHL-1, read-out: IC50 in cell proliferation assay, cell line SU-DHL-1 (NPM1-ALK)) was 7.71 µM. The IC50 (Homo sapiens, SU-DHL-6, read-out: IC50 in cell proliferation assay, cell line SU-DHL-6) was > 31.6 µM, the IC50 (Homo sapiens, SUP-T1, read-out: IC50 in cell proliferation assay, cell line SUP-T1) was > 31.6 µM and the IC50 (Homo sapiens, SW48, read-out: IC50 in cell proliferation assay, cell line SW48 (EGFR p.G719S)) was 0.034 µM. It also gave an IC50 (Homo sapiens, SW480, read-out: IC50 in cell proliferation assay, cell line SW480) of 0.029 µM, an IC50 (Homo sapiens, SW626, read-out: IC50 in cell proliferation assay, cell line SW626) of 0.044 µM and an IC50 (Homo sapiens, SW780, read-out: IC50 in cell proliferation assay, cell line SW780 (FGFR3-BAIAP2L1)) of 0.447 µM. It also gave an IC50 (Homo sapiens, SW837, read-out: IC50 in cell proliferation assay, cell line SW837) of 0.22 µM, an IC50 (Homo sapiens, SW872, read-out: IC50 in cell proliferation assay, cell line SW872 (BRAF p.V600E)) of 0.025 µM and an IC50 (Homo sapiens, SW900, read-out: IC50 in cell proliferation assay, cell line SW900) of 0.035 µM. The IC50 (Homo sapiens, SW948, read-out: IC50 in cell proliferation assay, cell line SW948) was 0.062 µM, the IC50 (Homo sapiens, SW982, read-out: IC50 in cell proliferation assay, cell line SW982 (BRAF p.V600E)) was 0.972 µM and the IC50 (Homo sapiens, SW-620, read-out: IC50 in cell proliferation assay, cell line SW620) was 0.024 µM. For the same molecule, the IC50 (Homo sapiens, T98G, read-out: IC50 in cell proliferation assay, cell line T98G) was > 31.6 µM, the IC50 (Homo sapiens, TCC-SUP, read-out: IC50 in cell proliferation assay, cell line TCCSUP) was > 31.6 µM and the IC50 (Homo sapiens, THP-1, read-out: IC50 in cell proliferation assay, cell line THP-1) was 0.025 µM. The IC50 (Homo sapiens, U2OS, read-out: IC50 in cell proliferation assay, cell line U2OS) was 10.6 µM, the IC50 (Homo sapiens, U-87 MG, read-out: IC50 in cell proliferation assay, cell line U-87MG ATCC) was 1.09 µM and the IC50 (Homo sapiens, U-118-MG, read-out: IC50 in cell proliferation assay, cell line U-118MG) was > 31.6 µM. For the same molecule, the IC50 (Homo sapiens, UMUC3, read-out: IC50 in cell proliferation assay, cell line UM-UC-3) was 0.801 µM, the IC50 (Hs766T, read-out: IC50 in cell proliferation assay, Hs 766T cell line) was 0.022 µM and the IC50 (L-82, read-out: IC50 in cell proliferation assay, L-82 cell line (NPM1-ALK)) was 0.95 µM. For the same molecule, the IC50 (Rh30, read-out: IC50 in cell proliferation assay, cell line Rh30) was > 31.6 µM, the IC50 (read-out: IC50 in cell proliferation assay, 11-18 cell line (EGFR p.L858R)) was > 31.6 µM and the IC50 (read-out: IC50 in cell proliferation assay, Hs 852.T cell line) was 0.345 µM. For the same molecule, the IC50 (read-out: IC50 in cell proliferation assay, JAR cell line) was > 31.6 µM, the IC50 (read-out: IC50 in cell proliferation assay, cell line 5637) was 8 µM and the IC50 (read-out: IC50 in cell proliferation assay, cell line A-388) was > 31.6 µM. For the same molecule, the IC50 (read-out: IC50 in cell proliferation assay, cell line DB) was > 31.6 µM, the IC50 (read-out: IC50 in cell proliferation assay, cell line DEL (NPM1-ALK)) was > 31.6 µM and the IC50 (read-out: IC50 in cell proliferation assay, cell line ES-2 (BRAF p.V600E)) was 0.242 µM. The IC50 (read-out: IC50 in cell proliferation assay, cell line PA-1) was 0.556 µM, the IC50 (read-out: IC50 in cell proliferation assay, cell line PC-3) was > 31.6 µM and the IC50 (read-out: IC50 in cell proliferation assay, cell line RD) was 0.059 µM. For the same molecule, the IC50 (read-out: IC50 in cell proliferation assay, cell line RKO (BRAF p.V600E)) was 0.367 µM, the IC50 (read-out: IC50 in cell proliferation assay, cell line RL) was > 31.6 µM and the IC50 (read-out: IC50 in cell proliferation assay, cell line RT-4 (FGFR3-TACC3)) was 21.3 µM. The IC50 (read-out: IC50 in cell proliferation assay, cell line SR (NPM1-ALK)) was 25.5 µM, the IC50 (read-out: IC50 in cell proliferation assay, cell line T24) was 0.092 µM and the IC50 (read-out: IC50 in cell proliferation assay, cell line TT (RET p.C634W)) was > 31.6 µM. For the same molecule, the IC50 (read-out: IC50 in cell proliferation assay, cell line VA-ES-BJ) was > 31.6 µM.
